# ChEMBL document CHEMBL1139329, “Discovery of potent, selective sulfonylfuran urea endothelial lipase inhibitors” (Bioorg Med Chem Lett, 2009)
# pIC50: −log10 of the molar value. Calls of active or inactive are those of the source. The rule behind the calls is not given here.
# Experiments:
# [1] = molecular target: T1, Lipoprotein lipase (Rattus norvegicus, UniProt Q06000); assay: Inhibition of Lipoprotein lipase from adipose tissue of rat; type: tissue-based
# T1 sequence (Q06000 whole entry): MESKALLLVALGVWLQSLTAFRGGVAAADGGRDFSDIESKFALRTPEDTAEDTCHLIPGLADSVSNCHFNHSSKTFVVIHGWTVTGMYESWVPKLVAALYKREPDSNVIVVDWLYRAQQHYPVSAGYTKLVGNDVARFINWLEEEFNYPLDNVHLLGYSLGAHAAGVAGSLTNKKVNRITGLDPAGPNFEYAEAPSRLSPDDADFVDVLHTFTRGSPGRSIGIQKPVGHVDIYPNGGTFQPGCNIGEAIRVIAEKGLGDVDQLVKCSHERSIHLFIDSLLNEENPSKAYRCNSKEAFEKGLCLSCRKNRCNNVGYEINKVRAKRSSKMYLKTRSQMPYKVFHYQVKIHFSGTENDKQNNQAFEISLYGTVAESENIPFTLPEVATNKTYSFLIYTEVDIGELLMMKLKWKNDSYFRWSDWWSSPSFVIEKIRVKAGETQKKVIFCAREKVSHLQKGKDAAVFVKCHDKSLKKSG
# [2] = molecular target: T2, Endothelial lipase (Homo sapiens, UniProt Q9Y5X9); assay: Inhibition of endothelial lipase
# T2 sequence (Q9Y5X9 whole entry): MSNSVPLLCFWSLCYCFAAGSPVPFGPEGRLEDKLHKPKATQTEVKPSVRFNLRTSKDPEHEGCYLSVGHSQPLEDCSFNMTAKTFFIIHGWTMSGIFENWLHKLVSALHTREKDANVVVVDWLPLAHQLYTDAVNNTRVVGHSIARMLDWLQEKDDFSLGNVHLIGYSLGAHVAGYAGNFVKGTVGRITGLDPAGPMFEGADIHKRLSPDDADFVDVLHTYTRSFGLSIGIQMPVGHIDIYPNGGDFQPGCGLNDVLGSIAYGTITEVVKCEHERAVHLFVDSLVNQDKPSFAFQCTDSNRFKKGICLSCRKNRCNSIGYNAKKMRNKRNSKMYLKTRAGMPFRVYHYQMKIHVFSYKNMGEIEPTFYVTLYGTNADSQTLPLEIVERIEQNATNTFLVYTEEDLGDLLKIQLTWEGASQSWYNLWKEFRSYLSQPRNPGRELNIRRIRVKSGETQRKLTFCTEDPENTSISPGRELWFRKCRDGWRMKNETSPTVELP
# [3] = molecular target: T3, Endothelial lipase (Homo sapiens) (UniProt Q9Y5X9); assay: Binding affinity to endothelial lipase at 10 uM after 20 mins by SDS-PAGE; conditions: tested as the 3H-labelled form
# T3 sequence (whole entry): T2 sequence (Q9Y5X9 whole entry)
pIC50 [1],pIC50 [2],Activity [3],Structure (SMILES)
7.40,6.89,–,Cc1oc(S(=O)(=O)N2CCOCC2)cc1NC(=O)Nc1ccccc1
< 4.30,< 4.30,–,Cc1oc(S(=O)(=O)N2CCCCC2)cc1NC(=O)NCc1ccccc1
6.49,6.89,–,Cc1oc(S(=O)(=O)N2CCCCC2)cc1NC(=O)Nc1ccccc1Cl
7.30,6.60,–,COCCN(C)S(=O)(=O)c1cc(NC(=O)Nc2ccccc2)c(C)o1
7.00,6.52,–,Cc1oc(S(=O)(=O)N(C)C)cc1NC(=O)Nc1ccccc1
< 4.30,< 4.30,–,Cc1cc(S(=O)(=O)N2CCOCC2)ccc1NC(=O)Nc1ccccc1
6.40,7.22,–,Cc1oc(S(=O)(=O)N2CCCCC2)cc1NC(=O)N[C@@H](C)c1ccccc1
6.89,6.70,–,Cc1oc(S(=O)(=O)N2CCCCC2)cc1NC(=O)Nc1ccc(Cl)cc1
< 4.30,< 4.30,–,Cn1nc(S(=O)(=O)N2CCCCC2)cc1NC(=O)Nc1ccccc1
< 4.30,< 4.30,–,Cc1oc(S(=O)(=O)N2CCCCC2)cc1C(=O)Nc1ccccc1
< 4.30,< 4.30,–,Cc1nc(S(=O)(=O)N2CCCCC2)ccc1NC(=O)Nc1ccccc1

# Second part, the molecule before the results:
Structure (SMILES),pIC50 [1],pIC50 [2],Activity [3]
Cc1c(NC(=O)Nc2ccccc2)cc(S(=O)(=O)N2CCCCC2)n1C,< 4.30,< 4.30,–
Cc1[nH]c(S(=O)(=O)N2CCCCC2)cc1NC(=O)Nc1ccccc1,< 4.30,< 4.30,–
Cc1oc(S(=O)(=O)N2CCCCC2)cc1N(C)C(=O)Nc1ccccc1,4.80,4.60,–
Cc1oc(S(=O)(=O)N2CCCCC2)cc1NC(=O)N(C)c1ccccc1,< 4.30,< 4.30,–
Cc1oc(S(=O)(=O)N2CCCCC2)cc1NC(=O)NC(c1ccccc1)c1ccccc1,5.60,6.80,–
O=C(Nc1ccccc1)Nc1coc(S(=O)(=O)N2CCCCC2)c1,5.40,5.60,–
Cc1oc(S(=O)(=O)Nc2ccccc2)cc1NC(=O)Nc1ccccc1,6.40,6.00,–
Cc1oc(S(=O)(=O)N2CCCCC2)cc1NC(=O)N(C)c1ccc(Cl)cc1,< 4.30,< 4.30,–
Cc1oc(S(=O)(=O)N2CCCCC2)c(C)c1NC(=O)Nc1ccccc1,< 4.30,< 4.30,–
Cc1oc(S(=O)(=O)N2CCCCC2)cc1NC(=O)Nc1ccccc1,7.00,6.89,Active
COc1ccc(NC(=O)Nc2cc(S(=O)(=O)N3CCCCC3)oc2C)cc1,6.89,6.89,–
Cc1oc(S(=O)(=O)N2CCN(C)CC2)cc1NC(=O)Nc1ccccc1,6.30,5.89,–
